{"source": "a flash point compilation (Sun et al. 2020)"}
{"units": {"flash point": "°C"}}
{"smiles": "CC(C)c1ccccc1", "note": "[cumene]", "flash point": 36.00}
{"smiles": "COC(=O)C(C)Oc1ccc(Oc2ccc(Cl)cc2Cl)cc1", "note": "(centres undefined) [methyl 2-[4-(2,4-dichlorophenoxy)phenoxy]propanoate]", "flash point": 38.00}
{"smiles": "CCCCCCCCCCCCc1ccccc1S(=O)(=O)O", "note": "[2-dodecylbenzenesulfonic acid]", "flash point": 149.00}
{"smiles": "CCCCCCCCC1CO1", "note": "(centres undefined) [2-octyloxirane]", "flash point": 78.00}
{"smiles": "Cc1ccco1", "note": "[2-methylfuran]", "flash point": -30.00}
{"smiles": "ClCCOCCCl", "note": "[1-chloro-2-(2-chloroethoxy)ethane]", "flash point": 55.00}
{"smiles": "CC", "note": "[ethane]", "flash point": -135.00}
{"smiles": "CCCCC(CC)COC(=O)COc1ccc(Cl)cc1Cl", "note": "(centres undefined) [2-ethylhexyl 2-(2,4-dichlorophenoxy)acetate]", "flash point": 171.00}
{"smiles": "COP(=O)(OC)OC1=C(Cl)C2C=CCC12", "note": "(centres undefined)", "flash point": 165.00}
{"smiles": "C=CC(C)=O", "note": "[but-3-en-2-one]", "flash point": -7.00}
{"smiles": "CCCCCCCCOC(=O)CCCCC(=O)OCCCCCCCC", "note": "[dioctyl hexanedioate]", "flash point": 196.00}
{"smiles": "CCN(O)CC", "note": "[N,N-diethylhydroxylamine]", "flash point": 45.00}
{"smiles": "CC(CCO)CC(C)(C)C", "note": "(centres undefined) [3,5,5-trimethylhexan-1-ol]", "flash point": 93.00}
{"smiles": "C=CCCCCCCCCCC", "note": "[dodec-1-ene]", "flash point": 100.00}
{"smiles": "CCCCO.CCCCO.CCCCO.CCCCO.[Ti]", "note": "[butan-1-ol;titanium]", "flash point": 77.00}
{"smiles": "COS(=O)(=O)c1ccc(C)cc1", "note": "[methyl 4-methylbenzenesulfonate]", "flash point": 152.00}
{"smiles": "CCCl", "note": "[chloroethane]", "flash point": -50.00}
{"smiles": "OCC=Cc1ccccc1", "note": "[3-phenylprop-2-en-1-ol]", "flash point": 126.00}
{"smiles": "ClCC1CO1", "note": "(centres undefined) [2-(chloromethyl)oxirane]", "flash point": 34.00}
{"smiles": "Clc1ccc([Si](Cl)(Cl)Cl)cc1Cl", "note": "[trichloro-(3,4-dichlorophenyl)silane]", "flash point": 141.00}
{"smiles": "COc1ccc(O)c(C(C)(C)C)c1", "note": "[2-tert-butyl-4-methoxyphenol]", "flash point": 156.00}
{"smiles": "CC(=O)Oc1ccccc1", "note": "[phenyl acetate]", "flash point": 80.00}
{"smiles": "BrCC1CO1", "note": "(centres undefined) [2-(bromomethyl)oxirane]", "flash point": 56.00}
{"smiles": "CCCCCCCCCCCCCl", "note": "[1-chlorododecane]", "flash point": 113.00}
{"smiles": "CCOC(=O)CC(C)=O", "note": "[ethyl 3-oxobutanoate]", "flash point": 57.00}
{"smiles": "COC(C)(C)CC(C)=O", "note": "[4-methoxy-4-methylpentan-2-one]", "flash point": 61.00}
{"smiles": "O=CCCl", "note": "[2-chloroacetaldehyde]", "flash point": 88.00}
{"smiles": "S=C([S-])NCCNC(=S)[S-].[Mn+2]", "flash point": 138.00}
{"smiles": "CC(C)C", "note": "[2-methylpropane]", "flash point": -83.00}
{"smiles": "N#CCc1ccccc1", "note": "[2-phenylacetonitrile]", "flash point": 102.00}
{"smiles": "CC(C)=O", "note": "[propan-2-one]", "flash point": -18.00}
{"smiles": "COC(=O)c1cccc(C(=O)OC)c1", "note": "[dimethyl benzene-1,3-dicarboxylate]", "flash point": 138.00}
{"smiles": "C=CCc1ccc(OC)c(OC)c1", "note": "[1,2-dimethoxy-4-prop-2-enylbenzene]", "flash point": 99.00}
{"smiles": "O=C(O)CS", "note": "[2-sulfanylacetic acid]", "flash point": 113.00}
{"smiles": "CC(C)CC(C)(C)C", "note": "[2,2,4-trimethylpentane]", "flash point": -12.00}
{"smiles": "OCC1CCC(CO)CC1", "note": "(centres undefined) [[4-(hydroxymethyl)cyclohexyl]methanol]", "flash point": 166.00}
{"smiles": "CCN(CC)c1ccccc1", "note": "[N,N-diethylaniline]", "flash point": 85.00}
{"smiles": "CCOC(C)=O", "note": "[ethyl acetate]", "flash point": -4.00}
{"smiles": "FC(F)(F)c1ccc(Cl)cc1", "note": "[1-chloro-4-(trifluoromethyl)benzene]", "flash point": 47.00}
{"smiles": "Clc1cc(Cl)cc(-c2cc(Cl)cc(Cl)c2)c1", "note": "[1,3-dichloro-5-(3,5-dichlorophenyl)benzene]", "flash point": 141.00}
{"smiles": "CC1OC(C)OC(C)OC(C)O1", "note": "(centres undefined) [2,4,6,8-tetramethyl-1,3,5,7-tetraoxocane]", "flash point": 36.00}
{"smiles": "C=C(C)[C@H]1CC=C(C)C(=O)C1", "note": "[(5S)-2-methyl-5-prop-1-en-2-ylcyclohex-2-en-1-one]", "flash point": 89.00}
{"smiles": "C=CCOCC=C", "note": "[3-prop-2-enoxyprop-1-ene]", "flash point": -7.00}
{"smiles": "CCCc1ccccc1", "note": "[propylbenzene]", "flash point": 48.00}
{"smiles": "CCCCCCCCCCCCCCCCCC(=O)O.O.[Cl][Cr][Cl].[Cl][Cr][Cl]", "note": "[dichlorochromium;octadecanoic acid;hydrate]", "flash point": 2.00}
{"smiles": "Cc1ccc(OP(=O)(Oc2ccc(C)cc2)Oc2ccc(C)cc2)cc1", "note": "[tris(4-methylphenyl) phosphate]", "flash point": 210.00}
{"smiles": "Cc1ccc2ccccc2n1", "note": "[2-methylquinoline]", "flash point": 79.00}
{"smiles": "C=Cc1ccccn1", "note": "[2-ethenylpyridine]", "flash point": 42.00}
{"smiles": "CCc1cccc(C)c1N", "note": "[2-ethyl-6-methylaniline]", "flash point": 102.00}
{"smiles": "CCC(C=O)CC", "note": "[2-ethylbutanal]", "flash point": 21.00}
{"smiles": "CCCC(C)CO", "note": "(centres undefined) [2-methylpentan-1-ol]", "flash point": 54.00}
{"smiles": "OCCCCl", "note": "[3-chloropropan-1-ol]", "flash point": 73.00}
{"smiles": "O=[N+]([O-])c1cccc(Cl)c1", "note": "[1-chloro-3-nitrobenzene]", "flash point": 127.00}
{"smiles": "CCC(C)Nc1c([N+](=O)[O-])cc(C(C)(C)C)cc1[N+](=O)[O-]", "note": "(centres undefined) [N-butan-2-yl-4-tert-butyl-2,6-dinitroaniline]", "flash point": 36.00}
{"smiles": "CCc1ccccc1", "note": "[ethylbenzene]", "flash point": 15.00}
{"smiles": "CCOC(=O)CCl", "note": "[ethyl 2-chloroacetate]", "flash point": 38.00}
{"smiles": "C=Cc1ccc(C)cc1.C=Cc1cccc(C)c1.C=Cc1ccccc1C", "flash point": 52.00}
{"smiles": "NC(=Nc1ccccc1)Nc1ccccc1", "note": "[1,2-diphenylguanidine]", "flash point": 198.00}
{"smiles": "CCC(C)OC(C)=O", "note": "(centres undefined) [butan-2-yl acetate]", "flash point": 17.00}
{"smiles": "C=CCCCCCCCC", "note": "[dec-1-ene]", "flash point": 53.00}
{"smiles": "CCCCC(CC)COC(=O)CCCCCCCCC(=O)OCC(CC)CCCC", "note": "(centres undefined) [bis(2-ethylhexyl) decanedioate]", "flash point": 210.00}
{"smiles": "CC(O)CNCC(C)O", "note": "(centres undefined) [1-(2-hydroxypropylamino)propan-2-ol]", "flash point": 126.00}
{"smiles": "CC(=O)c1ccccc1", "note": "[1-phenylethanone]", "flash point": 82.00}
{"smiles": "CCCCC(CC)CNCC(CC)CCCC", "note": "(centres undefined) [2-ethyl-N-(2-ethylhexyl)hexan-1-amine]", "flash point": 132.00}
{"smiles": "CC(C)(C)c1cc(CCC(=O)OCC(COC(=O)CCc2cc(C(C)(C)C)c(O)c(C(C)(C)C)c2)(COC(=O)CCc2cc(C(C)(C)C)c(O)c(C(C)(C)C)c2)COC(=O)CCc2cc(C(C)(C)C)c(O)c(C(C)(C)C)c2)cc(C(C)(C)C)c1O", "flash point": 297.00}
{"smiles": "CCCC(=O)C(C)=O", "note": "[hexane-2,3-dione]", "flash point": 28.00}
{"smiles": "Oc1cccc2c(O)cccc12", "note": "[naphthalene-1,5-diol]", "flash point": 252.00}
{"smiles": "CC(=O)CC(C)(C)O", "note": "[4-hydroxy-4-methylpentan-2-one]", "flash point": 52.00}
{"smiles": "Nc1ccccc1[N+](=O)[O-]", "note": "[2-nitroaniline]", "flash point": 168.00}
{"smiles": "NCCNCCNCCN", "note": "[N'-[2-(2-aminoethylamino)ethyl]ethane-1,2-diamine]", "flash point": 135.00}
{"smiles": "C=COC(C)=O", "note": "[ethenyl acetate]", "flash point": -8.00}
{"smiles": "CC(C)N", "note": "[propan-2-amine]", "flash point": -37.00}
{"smiles": "CCC(C)(C)OC(C)=O", "note": "[2-methylbutan-2-yl acetate]", "flash point": 26.00}
{"smiles": "CC(N)CCN", "note": "(centres undefined) [butane-1,3-diamine]", "flash point": 52.00}
{"smiles": "c1ccc(C2CO2)cc1", "note": "(centres undefined) [2-phenyloxirane]", "flash point": 79.00}
{"smiles": "O=C=NCCCCCCN=C=O", "note": "[1,6-diisocyanatohexane]", "flash point": 140.00}
{"smiles": "CC(C)CC(O)CC(C)C", "note": "[2,6-dimethylheptan-4-ol]", "flash point": 74.00}
{"smiles": "CCOC(=O)NCCOc1ccc(Oc2ccccc2)cc1", "note": "[ethyl N-[2-(4-phenoxyphenoxy)ethyl]carbamate]", "flash point": 224.00}
{"smiles": "CC(C)(C)OOC(C)(C)C", "note": "[2-tert-butylperoxy-2-methylpropane]", "flash point": 18.00}
{"smiles": "COc1ccc2c3c1OC1C(O)C=CC4C(C2)N(C)CCC341", "note": "(centres undefined)", "flash point": 75.00}
{"smiles": "COc1ccccc1O", "note": "[2-methoxyphenol]", "flash point": 74.00}
{"smiles": "CCCCOCCOCCOC(C)=O", "note": "[2-(2-butoxyethoxy)ethyl acetate]", "flash point": 116.00}
{"smiles": "Nc1ccc2c(c1)C(=O)c1ccccc1C2=O", "note": "[2-aminoanthracene-9,10-dione]", "flash point": 283.00}
{"smiles": "CCCCOC(=O)COC(=O)c1ccccc1C(=O)OCCCC", "flash point": 199.00}
{"smiles": "Nc1ccccn1", "note": "[pyridin-2-amine]", "flash point": 92.00}
{"smiles": "C1=CC(c2ccc(C3CC=CCC3)cc2)CCC1", "note": "(centres undefined) [1-cyclohex-2-en-1-yl-4-cyclohex-3-en-1-ylbenzene]", "flash point": 157.00}
{"smiles": "CC(C)[CH2][Al]([CH2]C(C)C)[CH2]C(C)C", "note": "[tris(2-methylpropyl)alumane]", "flash point": -23.00}
{"smiles": "c1ccc2c(c1)Cc1ccccc1-2", "note": "[9H-fluorene]", "flash point": 151.00}
{"smiles": "N#CCCCCC#N", "note": "[hexanedinitrile]", "flash point": 93.00}
{"smiles": "CCCS", "note": "[propane-1-thiol]", "flash point": -15.00}
{"smiles": "C=C(C)C(=O)O", "note": "[2-methylprop-2-enoic acid]", "flash point": 77.00}
{"smiles": "C=CC(C)(C)O", "note": "[2-methylbut-3-en-2-ol]", "flash point": 13.00}
{"smiles": "SC1CCCCC1", "note": "[cyclohexanethiol]", "flash point": 43.00}
{"smiles": "C1CCSC1", "note": "[thiolane]", "flash point": 13.00}
{"smiles": "CC(=O)OC(C)=O", "note": "[acetyl acetate]", "flash point": 49.00}
{"smiles": "COc1ccc(O)c(C(C)(C)C)c1.COc1ccc(O)cc1C(C)(C)C", "note": "[2-tert-butyl-4-methoxyphenol;3-tert-butyl-4-methoxyphenol]", "flash point": 113.00}
{"smiles": "COC(C)COC(C)COC(C)=O", "note": "(centres undefined) [2-(2-methoxypropoxy)propyl acetate]", "flash point": 86.00}
{"smiles": "Cc1ccc(C)c(C)c1", "note": "[1,2,4-trimethylbenzene]", "flash point": 44.00}
{"smiles": "CC(C)Nc1nc(Cl)nc(NC2CC2)n1", "flash point": 163.00}
